In ChEMBL document CHEMBL3045772, “Amide derivatives of [6-acyl-2-benzothiazolinon-3-yl] acetic acids as potential analgesic and anti-inflammatory compounds” (Med Chem Res, 2010):
Calls of active or inactive are those of the source. The rule behind the calls is not given here.

Tests used:
Mus musculus [1] = experiment: Gastrointestinal toxicity in Mus musculus Swiss albino (mouse) assessed as ratio of ulcer at 100 mg/kg, po measured after 2 hr; type: organism-based; parameters: dose 100 mg/kg, route oral; conditions: in vivo
[2] = target: Prostaglandin G/H synthase 1 (Homo sapiens) (UniProt P23219); conditions: Blood, at 10 µM;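 also: human whole blood assay, COX-1 activity read out as TXB2 level by enzyme immunoassay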
Description: Inhibition of cyclooxygenase-1 in Homo sapiens (human) whole blood assessed as TXB2 level at 10 uM by EIA

Mus musculus [3] = experiment: Anti-inflammatory activity in Mus musculus Swiss albino (mouse) assessed as inhibition of carrageenan-induced edema at 100 mg/kg, po pretreated 60 min before carrageenan-challenge measured after 90 min; type: functional
Mus musculus [4] = experiment: Anti-inflammatory activity in Mus musculus Swiss albino (mouse) assessed as inhibition of carrageenan-induced edema at 100 mg/kg, po pretreated 60 min before carrageenan-challenge measured after 180 min; type: functional
Mus musculus [5] = experiment: Analgesic activity in Mus musculus Swiss albino (mouse) assessed as inhibition of p-benzoquinone-induced writhing at 100 mg/kg, po pretreated 60 min before p-benzoquinone challenge; type: functional
Mus musculus [6] = experiment: Anti-inflammatory activity in Mus musculus Swiss albino (mouse) assessed as inhibition of carrageenan-induced edema at 100 mg/kg, po pretreated 60 min before carrageenan-challenge measured after 270 min; type: functional
Mus musculus [7] = experiment: Anti-inflammatory activity in Mus musculus Swiss albino (mouse) assessed as inhibition of carrageenan-induced edema at 100 mg/kg, po pretreated 60 min before carrageenan-challenge measured after 360 min; type: functional
[8] = target: T1, Prostaglandin G/H synthase 2 (Homo sapiens) (UniProt P35354); conditions: Blood, at 10 µM;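 also: human whole blood COX-2 activity read out as PGE2 level measured by enzyme immunoassay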
T1 sequence (whole entry): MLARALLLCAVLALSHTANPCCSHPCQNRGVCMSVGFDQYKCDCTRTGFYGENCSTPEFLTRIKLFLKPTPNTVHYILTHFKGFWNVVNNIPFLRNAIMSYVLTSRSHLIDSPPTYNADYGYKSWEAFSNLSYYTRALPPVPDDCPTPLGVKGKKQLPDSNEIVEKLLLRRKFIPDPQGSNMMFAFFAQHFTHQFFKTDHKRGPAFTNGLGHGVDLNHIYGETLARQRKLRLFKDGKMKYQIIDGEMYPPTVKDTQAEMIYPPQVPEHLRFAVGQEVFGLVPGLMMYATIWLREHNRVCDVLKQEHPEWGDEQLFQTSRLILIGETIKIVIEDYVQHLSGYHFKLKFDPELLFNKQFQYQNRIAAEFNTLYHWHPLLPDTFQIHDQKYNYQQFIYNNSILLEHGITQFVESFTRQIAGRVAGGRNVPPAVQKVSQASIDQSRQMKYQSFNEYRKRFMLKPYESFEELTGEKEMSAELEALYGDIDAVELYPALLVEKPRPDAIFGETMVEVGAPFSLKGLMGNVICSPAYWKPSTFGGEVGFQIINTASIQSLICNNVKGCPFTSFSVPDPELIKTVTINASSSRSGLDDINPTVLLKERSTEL
Description: Inhibition of cyclooxygenase-2 in Homo sapiens (human) whole blood assessed as PGE2 level at 10 uM by EIA

[9] = target: T2, Polyunsaturated fatty acid 5-lipoxygenase (Homo sapiens) (UniProt P09917); experiment: Inhibition of 5-LOX (unknown origin) at 10 uM
T2 sequence (whole entry): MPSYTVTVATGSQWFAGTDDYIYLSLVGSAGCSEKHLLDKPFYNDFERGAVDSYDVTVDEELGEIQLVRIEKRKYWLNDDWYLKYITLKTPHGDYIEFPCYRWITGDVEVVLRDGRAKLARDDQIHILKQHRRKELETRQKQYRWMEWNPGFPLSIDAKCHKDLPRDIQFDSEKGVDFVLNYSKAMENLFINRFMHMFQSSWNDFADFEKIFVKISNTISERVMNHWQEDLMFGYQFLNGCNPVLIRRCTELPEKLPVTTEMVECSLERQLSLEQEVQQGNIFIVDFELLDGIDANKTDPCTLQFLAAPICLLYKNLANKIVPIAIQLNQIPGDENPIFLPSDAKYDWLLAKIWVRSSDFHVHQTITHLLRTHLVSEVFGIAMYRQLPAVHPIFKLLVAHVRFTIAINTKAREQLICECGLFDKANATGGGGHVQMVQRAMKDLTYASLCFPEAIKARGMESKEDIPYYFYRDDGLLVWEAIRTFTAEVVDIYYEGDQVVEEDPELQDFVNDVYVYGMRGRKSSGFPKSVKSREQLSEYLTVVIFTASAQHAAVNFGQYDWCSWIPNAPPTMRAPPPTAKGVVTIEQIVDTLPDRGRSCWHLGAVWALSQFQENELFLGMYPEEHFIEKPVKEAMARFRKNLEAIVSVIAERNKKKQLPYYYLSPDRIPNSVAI

Chain of Prostaglandin G/H synthase 1 (Homo sapiens) (P23219 whole entry): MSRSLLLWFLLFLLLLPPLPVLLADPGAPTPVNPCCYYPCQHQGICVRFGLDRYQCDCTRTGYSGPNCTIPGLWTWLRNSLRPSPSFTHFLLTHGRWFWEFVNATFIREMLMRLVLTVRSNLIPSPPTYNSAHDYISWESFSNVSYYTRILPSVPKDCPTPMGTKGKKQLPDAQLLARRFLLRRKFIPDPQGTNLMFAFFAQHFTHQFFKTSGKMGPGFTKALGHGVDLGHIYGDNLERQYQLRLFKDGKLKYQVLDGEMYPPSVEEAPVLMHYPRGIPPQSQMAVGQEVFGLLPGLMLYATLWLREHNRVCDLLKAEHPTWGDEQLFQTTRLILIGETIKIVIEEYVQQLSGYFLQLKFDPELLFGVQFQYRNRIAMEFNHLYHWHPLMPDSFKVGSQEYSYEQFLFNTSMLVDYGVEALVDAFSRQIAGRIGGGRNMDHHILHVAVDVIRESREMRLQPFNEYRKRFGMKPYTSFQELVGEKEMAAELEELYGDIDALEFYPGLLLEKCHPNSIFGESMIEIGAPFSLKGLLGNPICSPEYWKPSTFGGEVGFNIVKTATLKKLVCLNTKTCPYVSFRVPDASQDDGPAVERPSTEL

Compound | Activity (Mus musculus [1]) | inhibition [2] | inhibition in vivo at 100 mg/kg (Mus musculus [3]) [%] | inhibition in vivo at 100 mg/kg (Mus musculus [4]) [%] | inhibition in vivo at 100 mg/kg (Mus musculus [5]) [%] | inhibition in vivo at 100 mg/kg (Mus musculus [6]) [%] | inhibition in vivo at 100 mg/kg (Mus musculus [7]) [%] | inhibition [8] | inhibition [9] | inhibition (Mus musculus [3]) | inhibition (Mus musculus [4]) | inhibition (Mus musculus [6]) | inhibition (Mus musculus [7]) | inhibition (Mus musculus [5])
O=C(Cn1c(=O)sc2cc(C(=O)c3ccccc3)ccc21)Nc1ccc(Cl)cc1 | Non-toxic | inactive | 6.6 | 15.2 | 26.5 | 22.9 | 16.5 | 23.1% | inactive | – | – | – | – | –
O=C(Cn1c(=O)sc2cc(C(=O)c3ccccc3Cl)ccc21)Nc1ccccn1 | Non-toxic | 45.2% | – | – | 15.5 | – | – | 28.9% | 3% | inactive | inactive | inactive | inactive | –
O=C(Cn1c(=O)sc2cc(C(=O)c3ccccc3Cl)ccc21)Nc1ccc(Cl)cc1 | Non-toxic | 39.2% | 25.8 | 28.4 | 47.3 | 31.9 | 33.2 | 53.1% | inactive | – | – | – | – | –
O=C(Cn1c(=O)sc2cc(C(=O)c3ccccc3F)ccc21)Nc1ccccn1 | Non-toxic | 17.8% | – | – | 18.7 | – | – | inactive | inactive | inactive | inactive | inactive | inactive | –
Cc1ccnc(NC(=O)Cn2c(=O)sc3cc(C(=O)c4ccccc4Cl)ccc32)c1 | Toxic | 10.1% | 3.8 | 3.5 | 8.1 | 5.1 | 3.7 | inactive | 11% | – | – | – | – | –
O=C(Cn1c(=O)sc2cc(C(=O)c3ccccc3F)ccc21)Nc1ccc(Cl)cc1 | Non-toxic | 10.4% | 25.9 | 29 | 54.3 | 30.3 | 31.7 | inactive | inactive | – | – | – | – | –
O=C(Cn1c(=O)sc2cc(C(=O)c3ccccc3)ccc21)Nc1cccc(Cl)c1 | Non-toxic | inactive | 5.6 | 10.7 | 23.1 | 10.8 | 8 | inactive | 46% | – | – | – | – | –
O=C(Cn1c(=O)sc2cc(C(=O)c3ccccc3)ccc21)Nc1ccccc1 | Non-toxic | 40.4% | 3.6 | 3.5 | 17.3 | 12.5 | – | 1.47% | 6% | – | – | – | – | –
O=C(Cn1c(=O)sc2cc(C(=O)c3ccccc3Cl)ccc21)Nc1ccccc1 | Non-toxic | 3.42% | 5.3 | 11 | 20.6 | 10.9 | 10.5 | inactive | 16% | – | – | – | – | –
Cc1cccc(NC(=O)Cn2c(=O)sc3cc(C(=O)c4ccccc4F)ccc32)n1 | Non-toxic | 28% | 1.7 | 3.7 | 22.2 | 1.2 | 2.3 | 12.6% | 20% | – | – | – | – | –
Cc1ccnc(NC(=O)Cn2c(=O)sc3cc(C(=O)c4ccccc4F)ccc32)c1 | Toxic | 1.98% | 2.8 | 6.8 | 27 | 6.1 | 4.6 | inactive | 19% | – | – | – | – | –
O=C(Cn1c(=O)sc2cc(C(=O)c3ccccc3F)ccc21)Nc1cccc(Cl)c1 | Non-toxic | 20.5% | 15.8 | 18.4 | 49.9 | 25.5 | 28.2 | 19.3% | 31% | – | – | – | – | –
Cc1cccc(NC(=O)Cn2c(=O)sc3cc(C(=O)c4ccccc4)ccc32)n1 | Toxic | inactive | – | – | – | – | – | inactive | 26% | inactive | inactive | inactive | inactive | inactive
CC(=O)Oc1ccccc1C(=O)O [ASPIRIN] | Toxic | – | – | – | 50.1 | – | – | – | – | – | – | – | – | –
O=C(Cn1c(=O)sc2cc(C(=O)c3ccccc3)ccc21)Nc1ccccn1 | Non-toxic | 49.8% | – | – | – | – | – | inactive | inactive | inactive | inactive | inactive | inactive | inactive
CS(=O)(=O)c1ccc(-c2cc(Br)sc2-c2ccc(F)cc2)cc1 | – | 100% | – | – | – | – | – | – | – | – | – | – | – | –
Cc1cccc(NC(=O)Cn2c(=O)sc3cc(C(=O)c4ccccc4Cl)ccc32)n1 | Non-toxic | 9.84% | – | – | 15.9 | – | – | 2.21% | 28% | inactive | inactive | inactive | inactive | –
O=C(Cn1c(=O)sc2cc(C(=O)c3ccccc3Cl)ccc21)Nc1cccc(Cl)c1 | Non-toxic | 7.27% | 23.9 | 22 | 41.8 | 30.4 | 31.3 | inactive | 35% | – | – | – | – | –
Cc1ccnc(NC(=O)Cn2c(=O)sc3cc(C(=O)c4ccccc4)ccc32)c1 | Toxic | 50% | – | – | – | – | – | 6.83% | 11% | inactive | inactive | inactive | inactive | inactive
O=C(Cn1c(=O)sc2cc(C(=O)c3ccccc3F)ccc21)Nc1ccccc1 | Non-toxic | 5.61% | 11.3 | 23.5 | 26.8 | 22.6 | 19.5 | inactive | 24% | – | – | – | – | –
